Results: paper PMC10304221, “Pharmacokinetic and Biomarker Quantification Studies on Vancomycin-Loaded PEGylated Liposomes and Its Potential to Reduce Vancomycin-Induced Kidney Injury: A Rat Study” (Pharmaceutics, 2023)
Where a name gives a salt, the structure may show the parent alone.

What was measured:
[1] = stated in the chemicals section, no method or reference given, cited from earlier work
Protocol: The 0.9% NaCl (Sing-Tong, Taiwan), Acetonitrile (CAN; Fisher Scientific U.K. Ltd., Loughborough, England), Bupivacaine (Marcaine®; AstraZeneca, Cambridge, UK), formic acid (FA; Merck, Germany), DMSO (Merck, Darmstadt, Germany), Ketalar injection (50 mg/mL; Pfizer, New York, NY, USA), methanol (MeOH; AENCORE, Australia), PBS (Sigma, USA), pentobarbital (Health-Tech Pharmaceutical Co., Ltd., Taiwan), Rompun injection (2%; Bayer, Leverkusen, Germany), and sodium heparin bodene (Pty) (Limited Trading as Intramed, Maharashtra, India). Acetonitrile, chloroform, and methanol VWR International (Radno ...

[2] = Plasma pharmacokinetics of vancomycin in rats, LC-MS/MS with non-compartmental analysis; details: rat plasma
[3] = day three, 150 mg/kg IV 3 min infusion qd x3, NCA, LC-MS/MS, mean, n = 6

Question: With `CN[C@H](CC(C)C)C(=O)N[C@H]1C(=O)N[C@@H](CC(N)=O)C(=O)N[C@H]2C(=O)N[C@H]3C(=O)N[C@H](C(=O)N[C@H](C(=O)O)c4cc(O)cc(O)c4-c4cc3ccc4O)[C@H](O)c3ccc(c(Cl)c3)Oc3cc2cc(c3O[C@@H]2O[C@H](CO)[C@@H](O)[C@H](O)[C@H]2O[C@H]2C[C@](C)(N)[C@H](O)[C@H](C)O2)Oc2ccc(cc2Cl)[C@H]1O` [Vancomycin Hydrochloride, Vancomycin hydrochloride] as the compound, how does the “Solubility in acetone, ether, and chloroform” value ([1]; acetone, ether, chloroform) read?
Answer: insoluble

Question: What about the Solubility in methanol ([1]; methanol) of the same compound?
Answer: moderately soluble

Question: And the Solubility in water ([1]; water)?
Answer: more than 100 mg/mL

Question: And the “Reduction in plasma vancomycin concentration compared to the PEG-VANCO-lipo group” value ([2]; day one at 0.5 and 1 h, day three at 1, 2 and 4 h, 150 mg/kg IV qd x3, n = 3, p ≤ 0.05, Tukey's two-way ANOVA)?
Answer: 2–5 fold

Question: And the t1/2 ([2]; day three, 150 mg/kg IV 3 min infusion qd x3, NCA (WinNonlin), LC-MS/MS, mean, n = 6)?
Answer: 13.26 h

Question: And the AUCINF [2, 3]?
Answer: 1461.44 µg·h/mL

Question: What about the “C0 (initial concentration estimated by back-extrapolation)” value [2, 3] of the same compound?
Answer: 186.69 µg/mL

Question: What about the CL [2, 3] of the same compound?
Answer: 1.7533 mL/min/kg

Question: And the MRT [2, 3]?
Answer: 17.073 h
